Laboratory results: patent US8044066B2, “Derivatives of pyrrolopyridine-2-carboxamides, preparation thereof and therapeutic application thereof” (Sanofi-Aventis, priority 2007, dated 2011)

Tests used:
TRPV1 receptor = target: T1, TRPV1 receptor (Rattus norvegicus, UniProt O35433); assay: Inhibition of the current induced with capsaicin on rat DRGs (whole-cell patch-clamp); assay type: cell-based; conditions: DRG neuron; compound at 10 nM; capsaicin 1 μM; newborn rat DRG neurons
T1 construct: The neurons of the DRG naturally express the TRPV1 receptor; endogenous in cells; host or cells: primary culture of newborn rat dorsal root ganglion (DRG) neurons
T1 sequence (O35433 whole entry): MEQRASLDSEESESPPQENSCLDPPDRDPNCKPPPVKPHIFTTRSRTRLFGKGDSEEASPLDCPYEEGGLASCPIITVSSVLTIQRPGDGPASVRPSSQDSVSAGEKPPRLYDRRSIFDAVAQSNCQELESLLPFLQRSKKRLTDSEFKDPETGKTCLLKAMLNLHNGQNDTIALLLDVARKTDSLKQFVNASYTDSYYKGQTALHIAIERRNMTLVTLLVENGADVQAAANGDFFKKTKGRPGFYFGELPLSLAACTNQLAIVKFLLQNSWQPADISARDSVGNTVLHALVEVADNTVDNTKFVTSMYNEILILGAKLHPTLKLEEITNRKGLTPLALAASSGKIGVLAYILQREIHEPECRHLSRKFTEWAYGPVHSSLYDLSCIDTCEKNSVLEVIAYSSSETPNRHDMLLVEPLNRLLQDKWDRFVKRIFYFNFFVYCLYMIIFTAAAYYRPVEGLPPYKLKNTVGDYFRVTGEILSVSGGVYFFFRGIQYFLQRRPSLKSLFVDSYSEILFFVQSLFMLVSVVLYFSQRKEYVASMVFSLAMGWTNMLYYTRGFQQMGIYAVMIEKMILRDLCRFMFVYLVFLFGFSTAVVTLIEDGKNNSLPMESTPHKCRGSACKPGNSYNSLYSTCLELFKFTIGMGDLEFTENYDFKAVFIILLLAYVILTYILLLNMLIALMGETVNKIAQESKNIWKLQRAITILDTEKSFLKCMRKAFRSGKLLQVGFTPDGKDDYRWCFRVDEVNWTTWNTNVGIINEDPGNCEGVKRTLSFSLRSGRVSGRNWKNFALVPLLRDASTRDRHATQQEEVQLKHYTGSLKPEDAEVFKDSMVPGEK
Procedure: Test of Inhibition of the Current Induced with Capsaicin on Rat DRGs
Primary Culture of Rat Dorsal Root Ganglion (DRG) Cells:
The neurons of the DRG naturally express the TRPV1 receptor.
The primary cultures of newborn rat DRGs are prepared using 1-day-old rats. Briefly, after dissection, the ganglions are trypsinized and the cells dissociated by mechanical trituration. The cells are resuspended in an Eagle basal culture medium containing 10% fetal calf serum, 25 mM KCl, 2 mM glutamine, 100 μg/ml gentamicin and 50 ng/ml of NGF, and then deposited on glass slides coated with laminin (0.25×10^6 cells per slide), which are then placed in Corning 12-well dishes. The cells are incubated at 37° C. in a humidified atmosphere containing 5% CO2 and 95% air. […]
The measuring chambers (volume 800 μl) containing the cell preparation are placed on the platform of an inverted microscope (Olympus IMT2) equipped with Hoffman optics (Modulation Contrast, New York) and observed at a magnification of 400×. […] The overall currents (membrane potential set at −60 mV) are recorded with an Axopatch 1D amplifier (Axon Instruments, Foster city, Calif.), connected to a PC running the Pclamp8 software (Axon Instrument). The current plots are recorded on paper and simultaneously digitized (sampling frequency 15 to 25 Hz) and acquired on the hard drive of the PC. […]

melting point [°C] | Structure (SMILES) | inhibition at 0.01 µM (TRPV1 receptor) [%]
 | Cc1nc2cc(NC(=O)c3cc4cc(F)cnc4n3Cc3ccncc3)ccc2s1 [Compound 1, N-(2-methylbenzothiazol-5-yl)-5-fluoro-1-[(4-pyridyl)methyl]-1H-pyrrolo[2,3-b]pyridine-2-carboxamide] | 50
236 to 238 | Cc1nc2cc(NC(=O)c3cc4cccnc4n3-c3ccncc3)ccc2s1 | 
